One data set concerns HCT116 cells. Description: Cell growth inhibition assay (sulforhodamine B), HCT116. Particulars: Homo sapiens, HCT-116. It counts as cell-based. The procedure: (§1) All cells were purchased from the American Type Culture Collection (ATCC) and MCF7 cells were routinely cultured in Dulbecco's Modified Eagle's Medium (DMEM) supplemented with 10% fetal calf serum (FCS) (First Link) and HCT116 cells were routinely cultured in Roswell Park Memorial Instititute Medium (RPMI) supplemented with 10% FCS. Cell growth was assessed using a known sulforhodamine B assay (see, e.g., Skehan et al., 1990).
(§2) MCF-7 cells purchased from ATCC (USA) were routinely passaged in DMEM, supplemented with 10% FCS and HCT116 cells purchased from ATCC (USA) were routinely passaged in RPMI supplemented with 10% FCS and kept in a 37° C. incubator with 5% CO2. The growth assay for both cell lines was performed in the appropriate media using the exact same protocol as described here. For the growth assay, 5000 cells were seeded into each well of 96-well plates in DMEM containing 10% FCS. Test compounds prepared in DMSO were added to the medium at concentrations ranging from 0.00038-100 μM. The cells were incubated for a further 72 hours, at which time they were fixed by the addition of 100 μL/well of ice-cold 40% trichloroacetic acid (TCA). The plates were left for 1 hour at 4° C., washed in water and 100 μL of 0.4% (w/v) sulforhodamine (SRB; Sigma-Aldrich, UK) prepared in 1% acetic acid was added. Plates were washed in 1% acetic acid to remove excess SRB reagent, air dried, and bound dye was solubilized by the addition of 100 μL of 10 mM tris base. The plates were read at 492 nm using a plate reader.

Another data set addresses T1, CDK4/cycD1 (Homo sapiens, UniProt P11802).
T1 construct: purchased ProQinase GmbH
Description: In vitro kinase assay (PKLight luciferase ATP readout), CDK4. In kind it is biochemical. Particulars: ATP at Km; three experiments. The procedure:
(§3) Purified recombinant CDK1/cycA1, CDK2/cycA1, CDK4/cycD1, CDK5/p35NCK, CDK6/cycD1, CDK7/CycH/MAT1, and CDK9/CycT1 were purchased from ProQinase GmbH. Kinase assays were performed according to manufacturer's protocols. Rb-CTF (ProQinase GmbH) (cat number: 0040-0000-6) was used as the kinase substrate for CDK1, CDK2, CDK4, and CDK6 kinases. […] A luciferase assay (PKLight assay; Cambrex) was used to determine ATP remaining at the end of the kinase reaction, which provides a measure of kinase activity, according to the manufacturer's protocols.
(§4) Kinase assays were carried out by incubation of increasing amounts of test compound with purified recombinant CDK-Cyclin complex, followed by measurement of free ATP remaining in the reaction using the luciferase assay kit (PKLight, Cambrex) which therefore provided a measure of inhibition for the specific CDK.
(§5) 5 μL of 1× kinase buffer (Cell Signalling Technologies) was mixed with 200 ng CDK1, 200 ng CDK2, 50 ng CDK4, 100 ng CDK5, or 200 ng CDK6 with 5 μg Rb-CTF and 300 ng CDK7 or 200 ng CDK9 with 500 μM RNA Poll II CTD peptide. […] The mixture was incubated at 30° C. for 30 minutes. […] Then 40 μL of the luciferase mix was added to the reaction mixture which was incubated for a further 10 minutes at room temperature and measured using the Tecan Infinite 2000 plate reader. […]

The subject of a further data set is MCF7 cells. Description: Cell growth inhibition assay (sulforhodamine B), MCF7. It counts as cell-based. As to conditions: Homo sapiens. The procedure: as §1, §2
Data set [1] deals with phospho-ER S118 in MCF-7 cells. Put plainly: Immunoblot of ER serine-118 phosphorylation in MCF-7 cells. In kind it is cell-based. Particulars: 1 μmol/L, time course, FIG. 6. The method, then:
Cell lysates were prepared by the addition of RIPA buffer (Sigma-Aldrich, cat no: R0278). Immunoblotting was carried out using standard methods (see, e.g., Harlow & Lane, 1988, Antibodies: A Laboratory Manual, Cold Spring Harbor Laboratory Press, USA), with antibodies for the protein or phosphorylation mark indicated. β-actin was used as control for protein loading. The second antibody was HRP-coupled Goat anti Mouse or Rabbit IgG.
(A western blot detects proteins with antibodies after separation by electrophoresis.)

Another data set relates to HCT116 tumour xenograft. Put plainly: HCT116 tumour xenograft study. It counts as in vivo, female Balb/c nu/nu mice.
Another data set addresses T2, CDK6/cycD1 (Homo sapiens, UniProt Q00534).
T2 construct: purchased ProQinase GmbH
Description: In vitro kinase assay (PKLight luciferase ATP readout), CDK6. In kind it is biochemical. As to conditions: ATP at Km; three experiments. The procedure:
as §3, §4, §5

The target in another data set is T3, CDK5/p35NCK (Homo sapiens, UniProt Q00535).
T3 construct: purchased ProQinase GmbH
Description: In vitro kinase assay (PKLight luciferase ATP readout), CDK5. It counts as biochemical. As to conditions: ATP at Km; three experiments. The procedure: as §3, §4, §5

Data set [2] has as its system human tumor cell lines (NCI60). Put plainly: NCI60 cancer cell line screen. It counts as cell-based. An excerpt: To extend the analysis to a more extensive set of cancer cell lines, PPDA-001 was submitted to the National Cancer Institute's Division of Cancer Treatment and Diagnosis in vitro screen of human tumor cell lines (http://dtp.nci.nih.gov/branches/btb/ivclsp.html).
Each line represents one cell line.

For another data set, the target named is T4, CDK1/cycA1 (Homo sapiens, UniProt P06493).
T4 construct: purchased ProQinase GmbH
Put plainly: In vitro kinase assay (PKLight luciferase ATP readout), CDK1. In kind it is biochemical. The method, then: as §3, §4
5 μL of 1× kinase buffer (Cell Signalling Technologies) was mixed with 200 ng CDK1, 200 ng CDK2, 50 ng CDK4, 100 ng CDK5, or 200 ng CDK6 with 5 μg Rb-CTF and 300 ng CDK7 or 200 ng CDK9 with 500 μM RNA Poll II CTD peptide. […] The mixture was incubated at 30° C. for 30 minutes. The reaction is stopped with 20 μL of Stop Solution (provided in the PKLight kit) for 10 minutes at room temperature. Then 40 μL of the luciferase mix was added to the reaction mixture which was incubated for a further 10 minutes at room temperature and measured using the Tecan Infinite 2000 plate reader. GraphPad Prism Software was used to generate standard curve and determine the IC50's for each CDK.

The structures appear in SMILES notation. Counter-ions that a name gives are not always drawn. Like-named read-outs stand apart in the source and are kept apart here. A value given as a limit tells only on which side of the number the result lay.

T1 sequence (P11802 whole entry): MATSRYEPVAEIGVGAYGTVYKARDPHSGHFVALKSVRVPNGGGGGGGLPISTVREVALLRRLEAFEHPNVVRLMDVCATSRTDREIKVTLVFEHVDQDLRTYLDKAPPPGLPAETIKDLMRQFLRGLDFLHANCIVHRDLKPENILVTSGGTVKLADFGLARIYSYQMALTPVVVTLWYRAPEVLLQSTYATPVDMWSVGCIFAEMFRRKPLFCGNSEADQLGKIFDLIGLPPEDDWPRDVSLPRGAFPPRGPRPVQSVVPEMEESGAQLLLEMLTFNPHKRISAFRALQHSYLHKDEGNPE
T1 sequence (P24385 whole entry partner): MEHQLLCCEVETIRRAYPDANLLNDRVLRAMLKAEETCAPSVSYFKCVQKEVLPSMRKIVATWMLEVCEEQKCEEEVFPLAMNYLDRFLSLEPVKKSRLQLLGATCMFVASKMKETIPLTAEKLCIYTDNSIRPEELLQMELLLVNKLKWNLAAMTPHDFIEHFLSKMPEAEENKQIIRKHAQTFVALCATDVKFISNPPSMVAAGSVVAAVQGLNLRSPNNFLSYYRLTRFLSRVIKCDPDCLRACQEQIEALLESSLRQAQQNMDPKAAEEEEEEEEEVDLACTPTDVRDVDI
T2 sequence (Q00534 whole entry): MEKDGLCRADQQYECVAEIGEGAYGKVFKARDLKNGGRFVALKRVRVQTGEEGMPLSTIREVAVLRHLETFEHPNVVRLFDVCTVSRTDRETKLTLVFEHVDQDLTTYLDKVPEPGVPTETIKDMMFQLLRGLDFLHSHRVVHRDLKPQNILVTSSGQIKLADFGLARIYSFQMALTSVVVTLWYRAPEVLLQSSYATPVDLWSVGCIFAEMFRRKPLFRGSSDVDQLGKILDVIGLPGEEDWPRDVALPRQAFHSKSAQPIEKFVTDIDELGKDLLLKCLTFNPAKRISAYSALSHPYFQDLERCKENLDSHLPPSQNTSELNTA
T2 sequence (P24385 whole entry partner): as the sequence (P24385 whole entry partner) above
T4 sequence (P06493 whole entry): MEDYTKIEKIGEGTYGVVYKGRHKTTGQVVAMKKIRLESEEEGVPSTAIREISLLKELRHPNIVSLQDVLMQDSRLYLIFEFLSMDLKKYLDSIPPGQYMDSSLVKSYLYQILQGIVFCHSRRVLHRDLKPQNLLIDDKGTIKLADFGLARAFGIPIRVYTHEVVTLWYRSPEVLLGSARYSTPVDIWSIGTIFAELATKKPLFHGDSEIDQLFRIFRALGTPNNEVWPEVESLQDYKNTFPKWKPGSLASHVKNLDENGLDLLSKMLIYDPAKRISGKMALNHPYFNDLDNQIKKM
T4 sequence (P78396 whole entry partner): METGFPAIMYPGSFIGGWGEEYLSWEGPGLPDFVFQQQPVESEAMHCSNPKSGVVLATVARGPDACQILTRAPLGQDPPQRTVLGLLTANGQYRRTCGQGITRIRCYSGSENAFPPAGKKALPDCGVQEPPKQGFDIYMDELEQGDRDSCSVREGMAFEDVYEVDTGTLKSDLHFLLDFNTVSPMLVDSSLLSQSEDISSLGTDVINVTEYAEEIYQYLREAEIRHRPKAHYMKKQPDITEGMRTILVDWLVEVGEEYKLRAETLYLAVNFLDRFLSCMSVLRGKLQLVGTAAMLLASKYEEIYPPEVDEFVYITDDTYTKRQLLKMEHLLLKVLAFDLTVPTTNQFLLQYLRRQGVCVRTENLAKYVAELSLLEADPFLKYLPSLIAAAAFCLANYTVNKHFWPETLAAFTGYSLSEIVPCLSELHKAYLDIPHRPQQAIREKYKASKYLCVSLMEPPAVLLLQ
T3 sequence (Q00535 whole entry): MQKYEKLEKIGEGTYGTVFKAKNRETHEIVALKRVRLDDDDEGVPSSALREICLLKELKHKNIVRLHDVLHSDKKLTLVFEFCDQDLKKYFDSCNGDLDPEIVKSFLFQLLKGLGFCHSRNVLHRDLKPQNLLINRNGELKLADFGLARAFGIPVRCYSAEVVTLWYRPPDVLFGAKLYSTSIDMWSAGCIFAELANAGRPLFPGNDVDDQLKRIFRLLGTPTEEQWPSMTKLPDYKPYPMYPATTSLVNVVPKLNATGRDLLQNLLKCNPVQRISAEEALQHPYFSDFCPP
T3 sequence (Q15078 whole entry partner): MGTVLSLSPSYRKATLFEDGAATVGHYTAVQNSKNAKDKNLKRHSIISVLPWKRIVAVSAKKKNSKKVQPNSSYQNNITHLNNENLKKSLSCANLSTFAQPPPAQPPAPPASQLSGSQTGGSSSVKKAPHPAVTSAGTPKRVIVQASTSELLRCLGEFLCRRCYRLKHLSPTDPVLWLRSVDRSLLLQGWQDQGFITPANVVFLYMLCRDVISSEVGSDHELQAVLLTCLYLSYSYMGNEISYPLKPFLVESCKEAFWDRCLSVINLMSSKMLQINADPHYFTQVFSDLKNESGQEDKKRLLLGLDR

`CC(C)c1cnn2c(NCc3ccccc3)cc(NC[C@H]3CCNC[C@@H]3O)nc12` [PPDA-001, (3R,4R)-4-(((7-(Benzylamino)-3-isopropylpyrazolo[1,5-a]pyrimidin-5-yl)amino)methyl)piperidin-3-ol hydrochloride]: the GI50 was 630 nM in the data set on HCT116 cells (72 hours, SRB assay, read-out: Growth Inhibition, GI50 HCT116); below 1000 nM in the data set with HCT116 cells (read-out: GI50, colorectal (HCT116) cancer cell line); 960 nM in the data set with MCF7 cells (72 hours, SRB assay, read-out: Growth Inhibition, GI50 MCF7); below 1000 nM in the data set with MCF7 cells (read-out: GI50, breast (MCF7) cancer cell line); 280 nM in [2] (mean of all 60 cell lines, read-out: mean GI50 over 60 cancer cell lines); 40 to 2100 nM in data set [2] (range over all 60 cell lines, read-out: range GI50 over 60 cancer cell lines). The IC50 worked out at 42100 nM against CDK4/cycD1, 32100 nM against CDK6/cycD1, 9000 nM against CDK5/p35NCK and 1520 nM against CDK1/cycA1. Also, the “phosphorylation of ER at serine-118 (phospho-ER S118)” value in [1] was “inhibits phosphorylation of ER at serine-118”. The “reduction in tumor growth” value with HCT116 tumour xenograft (50 mg/kg/bi-daily and 100 mg/kg once daily PO, compared with the control arms) came out at 65%. Moreover, the “Animal weight (percent body weight)” value with HCT116 tumour xenograft (PPDA-001 treatment arms (50 mg/kg bi-daily, 100 mg/kg once daily, PO), over the course of the study, vehicle 98%) is on record as 92%.

One may read the GI50 as the concentration that inhibits growth by half. As usually defined, the IC50 is the point on the concentration scale where inhibition reaches its midpoint. Lower therefore signals greater potency.

For the origin of these results see patent US11566029B2, “Pyrazolo[1,5-a]pyrimidine-5,7-diamine compounds as CDK inhibitors and their therapeutic use” (CANCER RESEARCH TECHNOLOGY LIMITED, priority 2014, dated 2023).
